Measured values published in the NIST ThermoML archive (doi:10.1016/j.jct.2010.09.003).
± gives the expanded uncertainty stated by the source.

Tests used:
[1] = Ring tensiometer
[2] = xn = mol fraction of the nth substance listed; details: Ring tensiometer

O [water]
[1]
Details | surface tension liquid-gas [mN/m]
283.15 K | 74.47 ± 0.94
298.15 K | 72.06 ± 0.92
308.15 K | 70.41 ± 0.9

OCCO [1,2-ethanediol] + O
[2]
Details | surface tension liquid-gas [mN/m]
283.15 K, x1 = 0.0078 | 73.5 ± 0.93
283.15 K, x1 = 0.0132 | 72.59 ± 0.92
283.15 K, x1 = 0.0216 | 71.19 ± 0.91
283.15 K, x1 = 0.0334 | 69.9 ± 0.89
283.15 K, x1 = 0.0498 | 68.63 ± 0.88
283.15 K, x1 = 0.0632 | 67.15 ± 0.86
283.15 K, x1 = 0.0875 | 64.99 ± 0.83
283.15 K, x1 = 0.1152 | 63.9 ± 0.82
283.15 K, x1 = 0.1436 | 62.16 ± 0.8
283.15 K, x1 = 0.1635 | 60.8 ± 0.79
283.15 K, x1 = 0.2002 | 59.26 ± 0.77
283.15 K, x1 = 0.2509 | 57.72 ± 0.75
283.15 K, x1 = 0.2895 | 56.46 ± 0.74
283.15 K, x1 = 0.4112 | 54.53 ± 0.71
283.15 K, x1 = 0.4753 | 53.16 ± 0.7
283.15 K, x1 = 0.6668 | 51.62 ± 0.68
283.15 K, x1 = 0.7562 | 50.82 ± 0.68
283.15 K, x1 = 0.8958 | 49.84 ± 0.67
298.15 K, x1 = 0.0083 | 71.18 ± 0.91
298.15 K, x1 = 0.0144 | 70.41 ± 0.9
298.15 K, x1 = 0.0246 | 69.25 ± 0.88
298.15 K, x1 = 0.0351 | 68.12 ± 0.87
298.15 K, x1 = 0.0466 | 66.95 ± 0.86
298.15 K, x1 = 0.0556 | 66.14 ± 0.85
298.15 K, x1 = 0.0899 | 63.74 ± 0.82
298.15 K, x1 = 0.1042 | 62.68 ± 0.81
298.15 K, x1 = 0.1342 | 61.16 ± 0.79
298.15 K, x1 = 0.1624 | 59.99 ± 0.78
298.15 K, x1 = 0.1989 | 58.5 ± 0.8
298.15 K, x1 = 0.2499 | 56.89 ± 0.74
298.15 K, x1 = 0.2996 | 55.65 ± 0.73
298.15 K, x1 = 0.401 | 53.63 ± 0.7
298.15 K, x1 = 0.4999 | 52.22 ± 0.69
298.15 K, x1 = 0.65 | 50.65 ± 0.67
298.15 K, x1 = 0.75 | 49.82 ± 0.66
298.15 K, x1 = 0.8987 | 48.68 ± 0.65
308.15 K, x1 = 0.008 | 69.14 ± 0.88
308.15 K, x1 = 0.0141 | 68.26 ± 0.87
308.15 K, x1 = 0.0253 | 66.81 ± 0.86
308.15 K, x1 = 0.0353 | 65.67 ± 0.84
308.15 K, x1 = 0.0511 | 64.1 ± 0.82
308.15 K, x1 = 0.0556 | 63.7 ± 0.82
308.15 K, x1 = 0.0905 | 61.09 ± 0.79
308.15 K, x1 = 0.1113 | 59.86 ± 0.78
308.15 K, x1 = 0.1445 | 58.26 ± 0.76
308.15 K, x1 = 0.1602 | 57.62 ± 0.75
308.15 K, x1 = 0.2132 | 55.84 ± 0.73
308.15 K, x1 = 0.2485 | 54.9 ± 0.72
308.15 K, x1 = 0.3201 | 53.39 ± 0.7
308.15 K, x1 = 0.4126 | 51.95 ± 0.69
308.15 K, x1 = 0.5054 | 50.84 ± 0.67
308.15 K, x1 = 0.6501 | 49.52 ± 0.66
308.15 K, x1 = 0.7406 | 48.84 ± 0.65
308.15 K, x1 = 0.8875 | 47.91 ± 0.64

CC#N [acetonitrile]
[1]
Details | surface tension liquid-gas [mN/m]
283.15 K | 29.73 ± 0.42
298.15 K | 28.2 ± 0.41
308.15 K | 27.47 ± 0.4

OCCO [1,2-ethanediol]
[1]
Details | surface tension liquid-gas [mN/m]
283.15 K | 49.27 ± 0.66
298.15 K | 48.22 ± 0.65
308.15 K | 47.29 ± 0.64

OCCO [1,2-ethanediol] + CC#N
[2]
Details | surface tension liquid-gas [mN/m]
283.15 K, x2 = 0.0102 | 47.92 ± 0.65
283.15 K, x2 = 0.0202 | 46.5 ± 0.63
283.15 K, x2 = 0.0349 | 44.85 ± 0.61
283.15 K, x2 = 0.0488 | 41.85 ± 0.57
283.15 K, x2 = 0.0611 | 41.1 ± 0.57
283.15 K, x2 = 0.0851 | 39 ± 0.54
283.15 K, x2 = 0.0936 | 38.18 ± 0.54
283.15 K, x2 = 0.102 | 36.99 ± 0.52
283.15 K, x2 = 0.1141 | 36.8 ± 0.52
283.15 K, x2 = 0.126 | 35.72 ± 0.51
283.15 K, x2 = 0.1413 | 34 ± 0.49
283.15 K, x2 = 0.1561 | 33.22 ± 0.48
283.15 K, x2 = 0.1765 | 32.67 ± 0.47
283.15 K, x2 = 0.1902 | 32.45 ± 0.47
283.15 K, x2 = 0.2426 | 32.01 ± 0.46
283.15 K, x2 = 0.29 | 31.75 ± 0.45
283.15 K, x2 = 0.3379 | 31.68 ± 0.45
283.15 K, x2 = 0.3895 | 31.49 ± 0.45
283.15 K, x2 = 0.4202 | 31.44 ± 0.45
283.15 K, x2 = 0.5197 | 31.05 ± 0.44
283.15 K, x2 = 0.7564 | 30.55 ± 0.43
283.15 K, x2 = 0.9008 | 30.01 ± 0.43
298.15 K, x2 = 0.0109 | 47.82 ± 0.64
298.15 K, x2 = 0.0199 | 47.46 ± 0.64
298.15 K, x2 = 0.0361 | 46.85 ± 0.63
298.15 K, x2 = 0.072 | 45.45 ± 0.62
298.15 K, x2 = 0.0845 | 44.97 ± 0.61
298.15 K, x2 = 0.1012 | 44.23 ± 0.6
298.15 K, x2 = 0.1402 | 42.7 ± 0.6
298.15 K, x2 = 0.1599 | 40.49 ± 0.56
298.15 K, x2 = 0.1992 | 40.13 ± 0.55
298.15 K, x2 = 0.2569 | 37.76 ± 0.52
298.15 K, x2 = 0.2999 | 36.35 ± 0.51
298.15 K, x2 = 0.35 | 34.9 ± 0.5
298.15 K, x2 = 0.4345 | 33 ± 1
298.15 K, x2 = 0.4888 | 32.25 ± 0.45
298.15 K, x2 = 0.5699 | 31.53 ± 0.45
298.15 K, x2 = 0.6321 | 31.01 ± 0.44
298.15 K, x2 = 0.7099 | 30.49 ± 0.43
298.15 K, x2 = 0.7765 | 30.17 ± 0.43
298.15 K, x2 = 0.8499 | 29.71 ± 0.42
308.15 K, x2 = 0.0202 | 46.45 ± 0.63
308.15 K, x2 = 0.0349 | 45.63 ± 0.62
308.15 K, x2 = 0.0674 | 43.75 ± 0.6
308.15 K, x2 = 0.0851 | 42.8 ± 0.59
308.15 K, x2 = 0.1021 | 41.75 ± 0.57
308.15 K, x2 = 0.1568 | 39.26 ± 0.54
308.15 K, x2 = 0.1852 | 37.85 ± 0.53
308.15 K, x2 = 0.1987 | 37.18 ± 0.52
308.15 K, x2 = 0.2426 | 35.5 ± 0.5
308.15 K, x2 = 0.2976 | 34.05 ± 0.48
308.15 K, x2 = 0.4144 | 31.64 ± 0.45
308.15 K, x2 = 0.4734 | 30.85 ± 0.44
308.15 K, x2 = 0.5101 | 30.41 ± 0.43
308.15 K, x2 = 0.6453 | 28.95 ± 0.42
308.15 K, x2 = 0.7654 | 28.53 ± 0.41
308.15 K, x2 = 0.9352 | 27.83 ± 0.4

CC#N [acetonitrile] + O
[2]
Details | surface tension liquid-gas [mN/m]
283.15 K, x1 = 0.0051 | 70.6 ± 0.91
283.15 K, x1 = 0.0101 | 67.18 ± 0.87
283.15 K, x1 = 0.0151 | 64.36 ± 0.83
283.15 K, x1 = 0.0217 | 61.23 ± 0.8
283.15 K, x1 = 0.0298 | 57.99 ± 0.76
283.15 K, x1 = 0.0377 | 55.36 ± 0.73
283.15 K, x1 = 0.0486 | 52.34 ± 0.69
283.15 K, x1 = 0.0593 | 49.47 ± 0.66
283.15 K, x1 = 0.0871 | 44.54 ± 0.6
283.15 K, x1 = 0.1011 | 42.3 ± 0.57
283.15 K, x1 = 0.1431 | 38.03 ± 0.52
283.15 K, x1 = 0.1615 | 35.51 ± 0.49
283.15 K, x1 = 0.1847 | 34.35 ± 0.48
283.15 K, x1 = 0.2068 | 33.9 ± 0.47
283.15 K, x1 = 0.2327 | 33.51 ± 0.47
283.15 K, x1 = 0.3098 | 32.89 ± 0.46
283.15 K, x1 = 0.3971 | 32.56 ± 0.46
283.15 K, x1 = 0.4878 | 32.29 ± 0.45
283.15 K, x1 = 0.6557 | 32.06 ± 0.45
283.15 K, x1 = 0.8056 | 31.26 ± 0.44
283.15 K, x1 = 0.9592 | 29.83 ± 0.43
298.15 K, x1 = 0.0149 | 62.36 ± 0.81
298.15 K, x1 = 0.0298 | 55.92 ± 0.73
298.15 K, x1 = 0.0516 | 49.39 ± 0.66
298.15 K, x1 = 0.0653 | 45.96 ± 0.61
298.15 K, x1 = 0.086 | 42.2 ± 0.57
298.15 K, x1 = 0.095 | 40.54 ± 0.55
298.15 K, x1 = 0.1023 | 39.63 ± 0.54
298.15 K, x1 = 0.1227 | 37.97 ± 0.52
298.15 K, x1 = 0.1403 | 36.42 ± 0.5
298.15 K, x1 = 0.157 | 35.68 ± 0.49
298.15 K, x1 = 0.1855 | 33.97 ± 0.47
298.15 K, x1 = 0.195 | 34.11 ± 0.48
298.15 K, x1 = 0.2541 | 32.92 ± 0.46
298.15 K, x1 = 0.3256 | 32.34 ± 0.45
298.15 K, x1 = 0.3959 | 31.68 ± 0.45
298.15 K, x1 = 0.4851 | 31.45 ± 0.44
298.15 K, x1 = 0.5913 | 30.95 ± 0.44
298.15 K, x1 = 0.693 | 30.37 ± 0.43
298.15 K, x1 = 0.7968 | 29.46 ± 0.42
308.15 K, x1 = 0.0217 | 60.53 ± 0.78
308.15 K, x1 = 0.0298 | 59 ± 0.77
308.15 K, x1 = 0.0377 | 55.56 ± 0.73
308.15 K, x1 = 0.0727 | 48.05 ± 0.64
308.15 K, x1 = 0.0871 | 45.83 ± 0.62
308.15 K, x1 = 0.1304 | 40.09 ± 0.55
308.15 K, x1 = 0.1431 | 38.79 ± 0.53
308.15 K, x1 = 0.1615 | 36.94 ± 0.51
308.15 K, x1 = 0.1847 | 35.7 ± 0.49
308.15 K, x1 = 0.2068 | 33.9 ± 0.47
308.15 K, x1 = 0.2327 | 33.51 ± 0.47
308.15 K, x1 = 0.3098 | 31.04 ± 0.44
308.15 K, x1 = 0.3971 | 30.05 ± 0.43
308.15 K, x1 = 0.4999 | 29.11 ± 0.42
308.15 K, x1 = 0.6557 | 28.41 ± 0.41
308.15 K, x1 = 0.7775 | 28.21 ± 0.41
308.15 K, x1 = 0.9592 | 28.05 ± 0.4
